From PMC7481482, “Development of Anthraquinone Derivatives as Ectonucleoside Triphosphate Diphosphohydrolase (NTPDase) Inhibitors With Selectivity for NTPDase2 and NTPDase3” (Frontiers in Pharmacology, 2020)

Tests used:
rat NTPDase2 = settings: rat enzyme; ref Baqi et al., 2009b; cited from earlier work
human NTPDase8 = biological target: T1, human NTPDase8 (Homo sapiens, UniProt Q5MY95); test: Malachite green assay, human NTPDase8; format: biochemical; settings: 2 μM compound; 100 µM ATP; COS-7 membrane preparation; read-out: % inhibition at 2 μM concentration, NTPDase8
T1 construct: expressed in transfected cells; host or cells: COS-7 cells (membrane preparation)
T1 sequence (Q5MY95 1-495): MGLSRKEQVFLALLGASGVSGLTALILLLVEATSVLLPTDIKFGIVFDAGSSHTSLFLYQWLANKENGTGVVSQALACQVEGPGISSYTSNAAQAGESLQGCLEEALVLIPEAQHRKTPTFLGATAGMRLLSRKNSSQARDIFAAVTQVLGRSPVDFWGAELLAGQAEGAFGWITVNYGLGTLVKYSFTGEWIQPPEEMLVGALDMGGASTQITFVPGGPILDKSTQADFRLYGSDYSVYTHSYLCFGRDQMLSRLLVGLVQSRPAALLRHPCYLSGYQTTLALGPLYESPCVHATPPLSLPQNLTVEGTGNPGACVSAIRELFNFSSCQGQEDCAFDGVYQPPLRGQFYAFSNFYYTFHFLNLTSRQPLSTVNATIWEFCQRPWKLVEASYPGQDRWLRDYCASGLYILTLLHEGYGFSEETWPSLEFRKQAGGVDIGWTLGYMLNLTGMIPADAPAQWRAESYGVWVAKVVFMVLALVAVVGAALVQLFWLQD
Summary of the method: (§1)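 COS-7 membranes expressing each NTPDase were preincubated with compound for 5 min at 37 °C, pH 7.4 HEPES buffer with 2 mM CaCl2/1 mM MgCl2. ATP was 50 µM for NTPDase1 and 100 µM for -2, -3, -8; reaction ran 15 min at 37 °C. Released phosphate read by malachite green at 600 nm; screen at 2 µM, IC50 over 0.03–30 µM in 2% DMSO.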

human NTPDase2 = biological target: T2, human NTPDase2 (Homo sapiens, UniProt Q9Y5L3); test: Malachite green assay, human NTPDase2; format: biochemical; settings: 2 μM compound; 100 µM ATP; COS-7 membrane preparation; read-out: % inhibition at 2 μM concentration, NTPDase2
T2 construct: expressed in transfected cells; host or cells: COS-7 cells (membrane preparation)
T2 sequence (Q9Y5L3 1-495): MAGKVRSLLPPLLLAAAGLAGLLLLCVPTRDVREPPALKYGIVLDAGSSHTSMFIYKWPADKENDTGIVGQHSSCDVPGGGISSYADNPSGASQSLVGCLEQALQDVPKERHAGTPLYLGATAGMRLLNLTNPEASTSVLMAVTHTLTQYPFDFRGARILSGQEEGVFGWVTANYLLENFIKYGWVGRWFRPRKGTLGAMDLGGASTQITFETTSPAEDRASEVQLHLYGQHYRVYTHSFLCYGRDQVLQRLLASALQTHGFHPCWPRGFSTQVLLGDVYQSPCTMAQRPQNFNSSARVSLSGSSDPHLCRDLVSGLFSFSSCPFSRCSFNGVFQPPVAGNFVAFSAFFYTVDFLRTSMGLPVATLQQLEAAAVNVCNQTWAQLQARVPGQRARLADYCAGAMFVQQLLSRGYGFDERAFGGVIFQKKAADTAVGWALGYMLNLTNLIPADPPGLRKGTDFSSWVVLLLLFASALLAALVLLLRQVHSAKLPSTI
Summary of the method: as §1

rat NTPDase1 = settings: rat enzyme; ref Baqi et al., 2009b; cited from earlier work
rat NTPDase3 = settings: rat enzyme; ref Baqi et al., 2009b; cited from earlier work

Nc1c(S(=O)(=O)O)cc(Nc2cccc3ccccc23)c2c1C(=O)c1ccccc1C2=O [Compound 15]
IC50 (rat NTPDase2): > 100 µM
inhibition at 2 µM (human NTPDase8): 9%
inhibition at 2 µM (human NTPDase2): 31%
IC50 (rat NTPDase1): > 100 µM
IC50 (rat NTPDase3): 1.5 µM
